Experimental data: US8846739B2, “TGR5 agonists” (Exelixis Patent Company LLC, priority 2009, dated 2014)

Tests used:
human TGR5 (h-TGR5) = target: T1, human TGR5 (h-TGR5) (Homo sapiens, UniProt Q8TDU6); assay: TGR5/CRE-Luciferase Assay; assay type: cell-based; details: HEK 293 hTGR5/CRE-Luc cells, 6 hours incubation, read-out: CRE-Luc Agonist (EC50)
T1 sequence (Q8TDU6 1-330): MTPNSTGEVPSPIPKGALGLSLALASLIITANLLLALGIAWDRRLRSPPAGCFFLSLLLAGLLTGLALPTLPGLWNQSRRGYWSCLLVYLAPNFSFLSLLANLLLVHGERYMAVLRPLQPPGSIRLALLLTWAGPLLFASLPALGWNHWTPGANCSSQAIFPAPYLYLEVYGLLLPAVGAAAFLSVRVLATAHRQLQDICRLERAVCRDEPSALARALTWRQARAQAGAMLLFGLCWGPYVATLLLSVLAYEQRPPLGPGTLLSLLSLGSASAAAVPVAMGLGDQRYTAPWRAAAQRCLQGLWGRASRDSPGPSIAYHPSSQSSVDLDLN
How it was run: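 HEK 293 CRE-Luciferase cells stably expressing the receptor, plated in DMEM 18-20 h before assay, then exposed to serially diluted compounds (DMEM with 5% DMSO) for 6 h. Luciferase read-out after lysis; EC50 from dose-response.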

h-TGR5 = target: T2, h-TGR5 (Homo sapiens, UniProt Q8TDU6); assay: TGR5 cAMP Assay using Cisbio cAMP Dynamic 2 htrf assay kit; assay type: cell-based; details: hTGR5CRE-luc HEK 293 cells
T2 sequence (Q8TDU6 1-330): T1 sequence (Q8TDU6 1-330)

Row | SMILES | EC50 (human TGR5 (h-TGR5)) | EC50 (h-TGR5)
1 | COc1cc(C(C)(C)c2cnc(SCc3c(F)cc(S(=O)(=O)N(C)[C@@H](CCC[N+](C)(C)C)C(=O)O)cc3F)n2-c2ccc(F)cc2)ccc1F [Compound 14e, (S)-4-carboxy-4-(3,5-difluoro-4-((5-(2-(4-luoro-3-methoxyphenyl)propan-2-yl)-1-(4-fluorophenyl)-1H-imidazol-2-ylthio)methyl)-N-methylphenylsulfonamido)-N,N,N-trimethylbutan-1-aminium chloride] | < 0.1 µM | < 0.1 µM
2 | COc1cc(C(C)(C)c2cnc(SCc3c(F)cc(S(=O)(=O)N(C)[C@@H](CCC[N+](C)(C)C)C(=O)O)cc3F)n2-c2ccc(F)cc2)cc(F)c1F [Compound 14f, (S)-4-carboxy-4-(4-((5-(2-(3,4-difluoro-5-methoxyphenyl)propan-2-yl)-1-(4-fluorophenyl)-1H-imidazol-2-ylthio)methyl)-3,5-difluoro-N-methylphenylsulfonamido)-N,N-trimethylbutan-1-aminium chloride] | < 0.1 µM | < 0.1 µM
3 | COc1ccc(C(C)(C)c2cnc(SCc3c(F)cc(S(=O)(=O)N(C)[C@@H](CCC[N+](C)(C)C)C(=O)O)cc3F)n2-c2ccc(F)cc2)cc1Cl [Compound 14g, (S)-4-carboxy-4-(4-((5-(2-(3-chloro-4-methoxyphenyl)propan-2-yl)-1-(4-fluorophenyl)-1H-imidazol-2-ylthio)methyl)-3,5-difluoro-N-methylphenylsulfonamido)-N,N,N-trimethylbutan-1-aminium chloride] | < 0.1 µM | < 0.1 µM
4 | CN([C@@H](CCC[N+](C)(C)C)C(=O)O)S(=O)(=O)c1cc(F)c(CSc2ncc(C(C)(C)c3ccc(F)c(Cl)c3)n2-c2ccc(F)cc2)c(F)c1 [Compound 14h, (S)-4-carboxy-4-(4-((5-(2-(3-chloro-4-fluorophenyl)propan-2-yl)-1-(4-fluorophenyl)-1H-imidazol-2-ylthio)methyl)-3,5-difluoro-N-methylphenylsulfonamido)-N,N,N-trimethylbutan-1-aminium chloride] | < 0.1 µM | < 0.1 µM
5 | COc1cc(C(C)(C)c2cnc(CCc3c(F)cc(S(=O)(=O)N(C)[C@@H](CCC[N+](C)(C)C)C(=O)O)cc3F)n2-c2ccc(F)cc2)ccc1Cl [Compound 14i, (S)-4-carboxy-4-(4-(2-(5-(2-(4-chloro-3-methoxyphenyl)propan-2-yl)-1-(4-fluorophenyl)-1H-imidazol-2-yl)ethyl)-3,5-difluoro-N-methylphenylsulfonamido)-N,N,N-trimethylbutan-1-aminium chloride] | < 0.1 µM | < 0.1 µM
6 | CCN(CCC[N+](C)(C)C)S(=O)(=O)c1cc(F)c(CSc2ncc(C(C)(C)c3ccc(F)c(OC)c3)n2-c2ccc(F)cc2)c(Cl)c1 [Compound 14j, 3-[{[3-chloro-5-fluoro-4-({[5-{1-[4-fluoro-3-(methyloxy)phenyl]-1-methylethyl}-1-(4-fluorophenyl)-1H-imidazol-2-yl]thio}methyl)phenyl]sulfonyl} (ethyl)amino]-N,N,N-trimethylpropan-1-aminium] | < 0.1 µM | < 0.1 µM
7 | COc1cc(C(C)(C)c2cnc(SCc3c(F)cc(S(=O)(=O)N(CCC[N+](C)(C)C)C4CC4)cc3Cl)n2-c2ccc(F)cc2)ccc1F [Compound 14k, 3-[{[3-chloro-5-fluoro-4-({[5-{1-[4-fluoro-3-(methyloxy)phenyl]-1-methylethyl}-1-(4-fluorophenyl)-1H-imidazol-2-yl]thio}methyl)phenyl]sulfonyl} (cyclopropyl)amino]-N,N,N-trimethylpropan-1-aminium] | < 0.1 µM | < 0.1 µM
8 | CC[N+](C)(C)CCCN(C)S(=O)(=O)c1cc(F)c(CSc2ncc(C(C)(C)c3ccc(F)c(OC)c3)n2-c2ccc(F)cc2)c(Cl)c1 [Compound 14m, 3-[{[3-chloro-5-fluoro-4-({[5-{1-[4-fluoro-3-(methyloxy)phenyl]-1-methylethyl}-1-(4-fluorophenyl)-1H-imidazol-2-yl]thio}methyl)phenyl]sulfonyl} (methyl)amino]-N-ethyl-N,N-dimethylpropan-1-aminium] | < 0.1 µM | < 0.1 µM
9 | COc1cc(C(C)(C)c2cnc(SCc3c(F)cc(S(=O)(=O)N(CCC[N+](C)(C)C)CC(=O)O)cc3Cl)n2-c2ccc(F)cc2)ccc1F [Compound 14n, 3-[(carboxymethyl){[3-chloro-5-fluoro-4-({[5-{1-[4-fluoro-3-(methyloxy)phenyl]-1-methylethyl}-1-(4-fluorophenyl)-1H-imidazol-2-yl]thio}methyl)phenyl]sulfonyl}amino]-N,N,N-trimethylpropan-1-aminium] | < 0.1 µM | < 0.1 µM
10 | COc1cc(C(C)(C)c2cnc(SCc3c(F)cc(S(=O)(=O)N(CCC[N+](C)(C)C)CC(=O)O)cc3Cl)n2-c2ccc(F)cc2)ccc1Cl [Compound 14s, 3-[(carboxymethyl){[3-chloro-4-({[5-{1-[4-chloro-3-(methyloxy)phenyl]-1-methylethyl}-1-(4-fluorophenyl)-1H-imidazol-2-yl]thio}methyl)-5-fluorophenyl]sulfonyl}amino]-N,N,N-trimethylpropan-1-aminium] | < 0.1 µM | < 0.1 µM

Other lines, results leading:

Row | EC50 (human TGR5 (h-TGR5)) | EC50 (h-TGR5) | SMILES
11 | < 0.1 µM | < 0.1 µM | COc1cc(C(C)(C)c2cnc(SCc3c(F)cc(S(=O)(=O)N(CCC[N+](C)(C)C)[C@H](C)CC(=O)O)cc3Cl)n2-c2ccc(F)cc2)ccc1Cl [Compound 14aj, (R)-3-(N-(1-carboxypropan-2-yl)-3-chloro-4-((5-(2-(4-chloro-3-methoxyphenyl)-propan-2-yl)-1-(4-fluorophenyl)-1H-imidazol-2-ythio)methyl)-5-fluorophenyl-sulfonamido)-N,N,N-trimethylpropan-1-aminium 2,2,2-trifluoroacetate]
12 | < 0.1 µM | < 0.1 µM | COc1cc(C(C)(C)c2cnc(SCc3c(F)cc(S(=O)(=O)N(CCC[N+](C)(C)C)[C@@H](C)C(=O)O)cc3F)n2-c2ccc(F)cc2)ccc1Cl [Compound 14b, (S)-3-(N-(1-carboxyethyl)-4-((5-(2-(4-chloro-3-methoxyphenyl)propan-2-yl)-1-(4-fluorophenyl)-1H-imidazol-2-ylthio)methyl)-3,5-difluorophenylsulfonamido)-N,N,N-trimethylpropan-1-aminium 2,2,2-trifluoroacetate]
13 | < 0.1 µM | < 0.1 µM | COc1cc(C(C)(C)c2cnc(SCc3c(F)cc(S(=O)(=O)N(CCC[N+](C)(C)C)[C@H](C)C(=O)O)cc3Cl)n2-c2ccc(F)cc2)cc(F)c1F [Compound 14c, (R)-3-(N-(1-carboxyethyl)-3-chloro-4-((5-(2-(3,4-difluoro-5-methoxyphenyl)propan-2-yl)-1-(4-fluorophenyl)-1H-imidazol-2-ylthio)methyl)-5-fluorophenylsulfonamido)-N,N,N-trimethylpropan-1-aminium 2,2,2-trifluoroacetate]
14 | < 0.1 µM | < 0.1 µM | COc1cc(C(C)(C)c2cnc(SCc3c(F)cc(S(=O)(=O)N(CCC[N+](C)(C)C)C(C)C)cc3Cl)n2-c2ccc(F)cc2)ccc1F [Compound 14l, 3-[{[3-chloro-5-fluoro-4-({[5-{1-[4-fluoro-3-(methyloxy)phenyl]-1-methylethyl}-1-(4-fluorophenyl)-1H-imidazol-2-yl]thio}methyl)phenyl]sulfonyl} (1-methylethyl)amino]-N,N,N-trimethylpropan-1-aminium]
15 | < 0.1 µM | < 0.1 µM | COc1cc(C(C)(C)c2cnc(SCc3c(F)cc(S(=O)(=O)N(CCCC[N+](C)(C)C)CC(=O)O)cc3F)n2-c2ccc(F)cc2)ccc1Cl [Compound 14o, 4-[(carboxymethyl){[4-({[5-{1-[4-chloro-3-(methyloxy)phenyl]-1-methylethyl}-1-(4-fluorophenyl)-1H-imidazol-2-yl]thio}methyl)-3,5-difluorophenyl]sulfonyl}amino]-N,N,N-trimethylbutan-1-aminium]
16 | < 0.1 µM | < 0.1 µM | COc1cc(C(C)(C)c2cnc(SCc3c(F)cc(S(=O)(=O)N(CCC[N+](C)(C)C)[C@H](C(=O)O)C(C)C)cc3F)n2-c2ccc(F)cc2)ccc1Cl [Compound 14p, 3-([(1S)-1-carboxy-2-methylpropyl]{[4-({[5-{1-[4-chloro-3-(methyloxy)phenyl]-1-methylethyl}-1-(4-fluorophenyl)-1H-imidazol-2-yl]thio}methyl)-3,5-difluorophenyl]sulfonyl}amino)-N,N,N-trimethylpropan-1-aminium]
17 | < 0.1 µM | < 0.1 µM | COc1cc(C(C)(C)c2cnc(SCc3c(F)cc(S(=O)(=O)N(CCC[N+](C)(C)C)[C@@H](C(=O)O)C(C)C)cc3F)n2-c2ccc(F)cc2)ccc1Cl [Compound 14q, 3-([(1R)-1-carboxy-2-methylpropyl]{[4-({[5-{1-[4-chloro-3-(methyloxy)phenyl]-1-methylethyl}-1-(4-fluorophenyl)-1H-imidazol-2-yl]thio}methyl)-3,5-difluorophenyl]sulfonyl}amino)-N,N,N-trimethylpropan-1-aminium]
18 | < 0.1 µM | < 0.1 µM | COc1cc(C(C)(C)c2cnc(SCc3c(F)cc(S(=O)(=O)N(CCC[N+](C)(C)C)CCC(=O)O)cc3F)n2-c2ccc(F)cc2)ccc1Cl [Compound 14r, 3-[(2-carboxyethyl){[4-({[5-{1-[4-chloro-3-(methyloxy)phenyl]-1-methylethyl}-1-(4-fluorophenyl)-1H-imidazol-2-yl]thio}methyl)-3,5-difluorophenyl]sulfonyl}amino]-N,N,N-trimethylpropan-1-aminium]
